Paper PMC6029275, “Cytotoxic properties of the anthraquinone derivatives isolated from the roots of Rubia philippinensis” (BMC Complementary and Alternative Medicine, 2018)

Tests used:
Assay type in all cases: cell-based
[1] = tested on: SK-MEL-5 (human melanoma); experiment: MTT cytotoxicity assay, SK-MEL-5; conditions: for IC50: MTT, 24 h treatment, mean ± SD; for Selectivity index SK-MEL-5 (column head IC50 (μM)): ratio of IC50 on MDCK cells to IC50 in SK-MEL-5
Procedure: (§1) The potential cytotoxicity of the isolated anthraquinone derivatives was studied against various cancer cell lines, including SK-MEL-5 (human melanoma), B16F10 (murine melanoma) MCF7 (human breast adenocarcinoma), and MDA-MB-231 (human breast adenocarcinoma) and the normal cell line MDCK (normal kidney epithelial) using the MTT assay. All cell lines were cultured in DMEM medium supplemented with 10% foetal bovine serum (FBS) and streptomycin–penicillin (100 μg/ml each; Hyclone) in a 5% CO2 humidified incubator. An MTT assay was employed to determine the percentage of the viability of various cancer cells as well as MDCK cells. All cells were first cultured in 96-well plates (1 × 10^5 cells/mL for all cancerous cells and 5 × 10^5 cells/mL for MDCK cells) for 24 h, and treated with indicated concentration of isolated compounds (6.25–100 μM for cancerous cells and 6.25–400 μM for MDCK cells). Various dilutions of stock culture were made in the culture medium to get the final concentration of the sample with a 0.1% of DMSO concentration, including the control. After 24 h incubation, MTT reagent was added to each well and the plate was incubated at 37 °C for 1 h. After removing the medium, the plate was washed twice with PBS (pH 7.4). The intracellular insoluble formazan was dissolved in 100% DMSO. A microplate reader was used to measure the absorbance of each cell line at 570 nm, and the percentage of cell viability was calculated. The absorbance value for the average of wells of cells treated with each test sample concentration was expressed as a percentage of this control and the IC50 values for each sample on each cell line were calculated. The anti-cancer drug oxaloplatin was used as a positive control.

[2] = tested on: MCF7 (human breast adenocarcinoma); experiment: MTT cytotoxicity assay, MCF7; conditions: for IC50: MTT, 24 h treatment, mean ± SD; for Selectivity index MCF7 (column head IC50 (μM)): ratio of IC50 on MDCK cells to IC50 in MCF7
Procedure: as §1

[3] = tested on: B16F10 (murine melanoma); experiment: MTT cytotoxicity assay, B16F10; conditions: for IC50: MTT, 24 h treatment, mean ± SD; for Selectivity index B16F10 (column head IC50 (μM)): ratio of IC50 on MDCK cells to IC50 in B16F10
Procedure: as §1

[4] = tested on: MDCK (normal kidney epithelial cells); experiment: MTT cytotoxicity assay, normal cell line MDCK; conditions: 24 h treatment, mean ± SD
Procedure: as §1

[5] = tested on: MDA-MB-231 (human breast adenocarcinoma); experiment: MTT cytotoxicity assay, MDA-MB-231; conditions: for IC50: MTT, 24 h treatment, mean ± SD; for Selectivity index MDA-MB-231: ratio of IC50 on MDCK cells to IC50 in MDA-MB-231
Procedure: as §1

Compound	IC50 ([1]; Homo sapiens, SK-MEL-5) [µM]	Selectivity index SK-MEL-5 (column head IC50 (μM)) [1]	IC50 ([2]; Homo sapiens, MCF7) [µM]	Selectivity index MCF7 (column head IC50 (μM)) [2]	IC50 ([3]; Mus musculus, B16-F10) [µM]	Selectivity index B16F10 (column head IC50 (μM)) [3]	IC50 ([4]; Canis lupus familiaris, MDCK) [µM]	IC50 ([5]; Homo sapiens, MDA-MB-231) [µM]	Selectivity index MDA-MB-231 [5]	IC50 [1] [µM]	IC50 [2] [µM]	IC50 [3] [µM]	IC50 [4] [µM]	IC50 [5] [µM]
CC(=O)OC[C@H]1O[C@@H](Oc2cc3c(c(O)c2C)C(=O)c2ccc(O)cc2C3=O)[C@H](O[C@H]2O[C@@H](C)[C@H](O)[C@@H](O)[C@H]2O)[C@@H](O)[C@@H]1O [Compound 1, 2-methyl-1,3,6-trihydroxy-9,10-anthraquinone-3-O-(6′-O-acetyl)-α-rhamnosyl(1 → 2)-β-glucoside]	91 ± 1.88	2.11	65.5 ± 1.1	2.94	48.68 ± 0.1	3.95	192.3 ± 0.49	49.4 ± 0.78	3.89	–	–	–	–	–
Cc1c(O)cc2c(c1O)C(=O)c1ccc(O)cc1C2=O [Compound 2, 2-methyl-1,3,6-trihydroxy-9,10-anthraquinone]	46.8 ± 1.39	3.61	80 ± 1.14	2.11	77.88 ± 0.34	2.17	168.8 ± 0.61	59.22 ± 0.4	2.85	–	–	–	–	–
O=C1c2ccccc2C(=O)c2c1ccc(O)c2O [Compound 3, alizarin]	53.08 ± 0.3	–	49.2 ± 0.85	–	98.8 ± 2.1	–	199.3 ± 1.88	48.64 ± 0.33	–	–	–	–	–	–
O=C1c2ccccc2C(=O)c2c(O)cc(O)cc21 [Compound 4, xanthopurpurin]	21.4 ± 0.99	–	15.8 ± 1	–	23.7 ± 1.71	–	67.9 ± 1.02	14.7 ± 1.45	–	–	–	–	–	–
COCc1c(O)cc2c(c1O)C(=O)c1ccccc1C2=O [Compound 5, lucidin-ω-methyl ether]	42.8 ± 1.32	1.85	24.1 ± 1.06	3.28	29.5 ± 2.61	2.68	79.01 ± 0.03	13 ± 0.33	6.06	–	–	–	–	–
O=C1[O][Pt]2([NH][C@@H]3CCCC[C@H]3[NH]2)[O]C1=O [Oxaloplatin, oxaloplatin, reference compound]	–	–	–	–	–	–	–	–	–	14.2 ± 1.02	8.59 ± 1.22	10.5 ± 0.92	24 ± 1.04	7.95 ± 1.92
